According to PMC11605156, “Triterpenoids from Ganoderma lucidum inhibit cytochrome P450 enzymes interfering with the metabolic process of specific clinical drugs” (Frontiers in Pharmacology, 2024):

Legend:
CYP2C19 = CYP2C19 (Homo sapiens, UniProt P33261); assay: CYP2C19 inhibition, S-mephenytoin probe in human liver microsomes; conditions: S-mephenytoin 50 μM, 30 min; for activity at 30 min: human, human liver microsomes, pH 7.4, probe S-mephenytoin 50 μM, Residual activity (%) CYP2C19, HLM 0.5 mg/mL
Sequence of CYP2C19 (P33261 whole entry): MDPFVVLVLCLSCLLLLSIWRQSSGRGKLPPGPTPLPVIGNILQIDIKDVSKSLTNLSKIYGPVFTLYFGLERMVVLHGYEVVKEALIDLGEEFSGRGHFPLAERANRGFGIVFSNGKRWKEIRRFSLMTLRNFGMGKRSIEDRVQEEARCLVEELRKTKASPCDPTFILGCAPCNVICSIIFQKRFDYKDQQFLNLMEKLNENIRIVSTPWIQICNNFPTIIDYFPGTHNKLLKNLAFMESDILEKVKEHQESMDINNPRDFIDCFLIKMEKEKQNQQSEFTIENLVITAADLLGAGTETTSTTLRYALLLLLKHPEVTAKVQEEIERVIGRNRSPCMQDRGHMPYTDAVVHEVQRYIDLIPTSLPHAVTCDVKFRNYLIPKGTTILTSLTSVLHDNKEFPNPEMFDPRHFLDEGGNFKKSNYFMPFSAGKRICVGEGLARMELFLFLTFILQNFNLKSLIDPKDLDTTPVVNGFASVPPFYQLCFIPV
Procedure: (§1) The total volume of the in vitro metabolic incubation system is 200 μL. The probe substrate concentration in the system is shown in Supplementary Table S1. […] The reaction sample was preheated in a constant temperature mixer at 37°C. Then NADP^+ was added to the system to initiate the reaction. The reaction time is 30 min, and 100 μL acetonitrile will be added on time to quickly terminate the reaction, followed by centrifugation at 4°C and 20,000 g for 20 min. The supernatant was analyzed using liquid chromatography tandem mass spectrometry (LC-MS/MS), and the activity of CYP enzymes was evaluated by the generation of probe metabolites. The mass spectrometry information of probe substrates is shown in Supplementary Table S3.
(§2) The isolated triterpenoids (1–66) were used to establish a compounds library. The inhibitory effects of 66 triterpenoids from G. lucidum on seven subtypes of CYP enzymes (CYP1A2, 2A6, 2D6, 2B6, 2C9, 2C19, 3A4) were evaluated followed the above-mentioned experimental procedures.
(§3) Table S1. The information of probes for CYPs activity assay

CYP2B6 = biological target: T1, CYP2B6 (Homo sapiens, UniProt P20813); assay: CYP2B6 inhibition, probe/drug metabolism in human liver microsomes; conditions: bupropion 75 μM, 30 min; for activity at 30 min: human, human liver microsomes, pH 7.4, probe bupropion 75 μM, Residual activity (%) CYP2B6, HLM 0.5 mg/mL
T1 sequence (P20813 1-491): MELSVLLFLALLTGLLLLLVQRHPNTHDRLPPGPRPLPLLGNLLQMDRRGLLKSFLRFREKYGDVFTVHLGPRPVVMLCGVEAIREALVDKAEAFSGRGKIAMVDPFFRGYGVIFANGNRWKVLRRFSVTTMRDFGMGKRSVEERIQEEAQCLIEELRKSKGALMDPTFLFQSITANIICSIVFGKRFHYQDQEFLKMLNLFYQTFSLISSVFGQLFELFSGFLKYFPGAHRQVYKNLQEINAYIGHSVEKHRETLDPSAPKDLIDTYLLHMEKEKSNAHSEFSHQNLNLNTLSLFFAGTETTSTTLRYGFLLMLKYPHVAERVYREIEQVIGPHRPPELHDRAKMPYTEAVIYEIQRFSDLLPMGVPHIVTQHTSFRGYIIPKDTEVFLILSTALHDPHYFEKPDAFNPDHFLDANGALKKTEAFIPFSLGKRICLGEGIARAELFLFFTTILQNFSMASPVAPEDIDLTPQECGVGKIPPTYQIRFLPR
Procedure: as §1, §2
(§4) For 16 clinical drugs metabolized by CYP enzymes, potential DDI studies were conducted on triterpenoids (6, 25) of G. lucidum, and IC50 values were measured.
(§5) Clinical drugs: Phenacetin, melatonin, clozapine and riluzole are metabolized by CYP1A2. Bupropion, artemisinin, efavirenz and sertraline are metabolized by CYP2B6. Diclofenac, valsartan, glimepiride and glibenclamide are metabolized by CYP2C9. Midazolam, imatinib, simvastatin and diltiazem are metabolized by CYP3A4.
as §3
(§6) Table S2. Information of clinical drugs

CYP2C9 = CYP2C9 (Homo sapiens, UniProt P11712); assay: CYP2C9 inhibition, probe/drug metabolism in human liver microsomes; conditions: diclofenac 4 μM, 30 min; for activity at 30 min: human, human liver microsomes, pH 7.4, probe diclofenac 4 μM, Residual activity (%) CYP2C9, HLM 0.5 mg/mL
Sequence of CYP2C9 (P11712 whole entry): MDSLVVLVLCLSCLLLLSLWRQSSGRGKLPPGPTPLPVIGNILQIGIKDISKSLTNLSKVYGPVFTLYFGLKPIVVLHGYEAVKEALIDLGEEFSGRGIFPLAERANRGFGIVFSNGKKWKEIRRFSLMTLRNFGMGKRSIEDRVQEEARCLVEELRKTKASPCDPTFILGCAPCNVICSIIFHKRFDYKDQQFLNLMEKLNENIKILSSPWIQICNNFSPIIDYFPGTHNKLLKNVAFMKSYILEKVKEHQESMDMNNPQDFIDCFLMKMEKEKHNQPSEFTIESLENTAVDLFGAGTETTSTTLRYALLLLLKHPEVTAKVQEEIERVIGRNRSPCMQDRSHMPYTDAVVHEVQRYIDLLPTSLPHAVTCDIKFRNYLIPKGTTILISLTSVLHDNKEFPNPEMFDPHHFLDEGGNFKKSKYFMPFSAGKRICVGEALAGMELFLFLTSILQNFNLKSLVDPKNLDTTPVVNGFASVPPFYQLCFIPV
Procedure: as §1, §2, §4, §5, §3, §6

CYP1A2 = biological target: T2, CYP1A2 (Homo sapiens, UniProt P05177); assay: CYP1A2 inhibition, probe/drug metabolism in human liver microsomes (LC-MS/MS); conditions: for IC50: IC50 against CYP 1A2, substrate phenacetin 40 μM, HLM; for activity at 30 min: human, human liver microsomes, pH 7.4, probe phenacetin 40 μM, Residual activity (%) CYP1A2, HLM 0.5 mg/mL; for activity at 30 min / Residual activity (%) CYP1A2: phenacetin 40 μM, 30 min; for Residual activity (%) CYP1A2: HLM 0.5 mg/mL
T2 sequence (P05177 1-516): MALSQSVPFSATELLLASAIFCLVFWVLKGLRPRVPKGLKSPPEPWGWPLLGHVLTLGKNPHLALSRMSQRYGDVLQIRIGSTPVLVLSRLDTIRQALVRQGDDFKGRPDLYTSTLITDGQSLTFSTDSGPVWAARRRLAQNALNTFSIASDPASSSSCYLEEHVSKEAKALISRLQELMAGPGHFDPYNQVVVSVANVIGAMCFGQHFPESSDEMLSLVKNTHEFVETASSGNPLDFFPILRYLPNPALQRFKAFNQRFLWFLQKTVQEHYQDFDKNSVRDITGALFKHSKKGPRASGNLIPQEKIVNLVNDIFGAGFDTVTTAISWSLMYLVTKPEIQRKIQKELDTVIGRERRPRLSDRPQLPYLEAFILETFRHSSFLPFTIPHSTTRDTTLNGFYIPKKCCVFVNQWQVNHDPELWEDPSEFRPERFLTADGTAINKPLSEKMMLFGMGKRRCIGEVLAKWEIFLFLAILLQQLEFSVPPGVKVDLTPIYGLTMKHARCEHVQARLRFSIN
Procedure: as §1, §2, §4, §5, §3, §6

CYP2A6 = biological target: T3, CYP2A6 (Homo sapiens, UniProt P11509); assay: CYP2A6 inhibition, coumarin probe in human liver microsomes; conditions: for activity at 30 min: human, human liver microsomes, pH 7.4, probe coumarin 2 μM, Residual activity (%) CYP2A6, HLM 0.5 mg/mL
T3 sequence (P11509 1-494): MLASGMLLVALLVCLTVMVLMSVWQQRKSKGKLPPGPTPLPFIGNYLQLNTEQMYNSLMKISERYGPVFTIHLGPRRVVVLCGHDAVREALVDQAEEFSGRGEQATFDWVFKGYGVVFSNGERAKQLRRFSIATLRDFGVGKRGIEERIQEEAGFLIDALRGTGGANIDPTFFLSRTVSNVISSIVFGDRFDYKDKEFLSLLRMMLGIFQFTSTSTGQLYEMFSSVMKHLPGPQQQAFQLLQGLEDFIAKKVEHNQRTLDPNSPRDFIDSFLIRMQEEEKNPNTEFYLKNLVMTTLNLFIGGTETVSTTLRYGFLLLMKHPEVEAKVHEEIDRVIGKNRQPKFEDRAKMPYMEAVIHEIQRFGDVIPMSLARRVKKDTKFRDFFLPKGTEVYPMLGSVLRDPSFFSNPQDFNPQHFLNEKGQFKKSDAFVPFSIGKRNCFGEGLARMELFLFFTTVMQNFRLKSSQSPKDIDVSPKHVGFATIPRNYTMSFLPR
Procedure: as §1, §2, §3

CYP2D6 = CYP2D6 (Homo sapiens, UniProt P10635); assay: CYP2D6 inhibition, dextromethorphan probe in human liver microsomes; conditions: for activity at 30 min: human, human liver microsomes, pH 7.4, probe dextromethorphan 5 μM, Residual activity (%) CYP2D6, HLM 0.5 mg/mL
Sequence of CYP2D6 (P10635 whole entry): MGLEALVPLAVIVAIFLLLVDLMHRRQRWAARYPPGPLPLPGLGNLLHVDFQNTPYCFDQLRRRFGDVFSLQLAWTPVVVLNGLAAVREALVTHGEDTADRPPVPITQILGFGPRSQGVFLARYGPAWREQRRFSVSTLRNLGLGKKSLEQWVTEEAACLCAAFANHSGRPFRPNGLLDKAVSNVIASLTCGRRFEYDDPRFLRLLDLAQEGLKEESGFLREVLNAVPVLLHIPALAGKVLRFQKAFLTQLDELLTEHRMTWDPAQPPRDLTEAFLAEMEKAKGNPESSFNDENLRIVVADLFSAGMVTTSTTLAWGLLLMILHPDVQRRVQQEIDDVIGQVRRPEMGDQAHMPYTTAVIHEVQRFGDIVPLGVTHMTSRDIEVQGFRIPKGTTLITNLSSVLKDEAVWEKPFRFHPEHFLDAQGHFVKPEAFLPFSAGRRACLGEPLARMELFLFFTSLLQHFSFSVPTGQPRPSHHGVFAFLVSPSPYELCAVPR
Procedure: as §1, §2, §3

CYP3A4 = CYP3A4 (Homo sapiens, UniProt P08684); assay: CYP3A4 inhibition, probe/drug metabolism in human liver microsomes; conditions: midazolam 5 μM, 30 min; for activity at 30 min: human, human liver microsomes, pH 7.4, probe midazolam 5 μM, Residual activity (%) CYP3A4, HLM 0.5 mg/mL
Sequence of CYP3A4 (P08684 whole entry): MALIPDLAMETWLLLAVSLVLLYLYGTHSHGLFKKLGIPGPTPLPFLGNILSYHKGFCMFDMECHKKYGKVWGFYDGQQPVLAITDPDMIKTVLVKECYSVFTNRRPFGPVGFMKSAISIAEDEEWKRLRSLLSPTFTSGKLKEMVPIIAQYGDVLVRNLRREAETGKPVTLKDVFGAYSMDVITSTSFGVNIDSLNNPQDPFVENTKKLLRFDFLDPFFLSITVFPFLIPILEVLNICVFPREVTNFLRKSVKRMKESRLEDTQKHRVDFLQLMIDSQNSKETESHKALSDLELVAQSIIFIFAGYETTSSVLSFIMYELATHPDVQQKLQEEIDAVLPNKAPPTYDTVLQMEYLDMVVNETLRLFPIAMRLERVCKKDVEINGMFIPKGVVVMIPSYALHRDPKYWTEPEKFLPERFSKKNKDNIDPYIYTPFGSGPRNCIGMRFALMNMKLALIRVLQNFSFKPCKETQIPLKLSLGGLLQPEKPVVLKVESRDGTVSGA
Procedure: as §1, §2, §4, §5, §3, §6

SMILES | activity at 30 min (CYP2C19) [%] | activity at 30 min (CYP2B6) [%] | activity at 30 min (CYP2C9) [%] | IC50 (CYP1A2) [µM] | activity at 30 min (CYP1A2) [%] | activity at 30 min (CYP2A6) [%] | activity at 30 min (CYP2D6) [%] | activity at 30 min (CYP3A4) [%] | Residual activity (%) CYP1A2 (CYP1A2) [%] | Residual activity (%) CYP2C19 (CYP2C19; HLM 0.5 mg/mL) [%] | Residual activity (%) CYP2B6 (CYP2B6; HLM 0.5 mg/mL) [%] | Residual activity (%) CYP2C9 (CYP2C9; HLM 0.5 mg/mL) [%] | Residual activity (%) CYP2A6 (CYP2A6; HLM 0.5 mg/mL, coumarin 2 μM, 30 min) [%] | Residual activity (%) CYP2D6 (CYP2D6; HLM 0.5 mg/mL, dextromethorphan 5 μM, 30 min) [%] | Residual activity (%) CYP3A4 (CYP3A4; HLM 0.5 mg/mL) [%]
CC(=O)OC1C(=O)C2=C(C(=O)CC3C(C)(C)C(=O)CCC23C)C2(C)C(=O)CC(C(C)CC(=O)CC(C)C(=O)O)C12C (stereo not shown) [Compound 9] | 105 ± 6.46 | 94.3 ± 1.83 | 77 ± 5.67 |  |  | 91.5 ± 2.1 | 94 ± 5.67 | 93.7 ± 4.04 | 89.44±0.96 |  |  |  |  |  | 
CC(=O)OC1C(=O)C2=C(C(O)CC3C2(C)CCC(O)C3(C)C)C2(C)C(=O)CC(C(C)=CC(=O)CC(C)C(=O)O)C12C (stereo not shown) [Compound 7] | 74.81 ± 0.08 | 90.6 ± 2.12 | 90 ± 1.41 | 12.8 ± 1.47 | 32.5 ± 1 | 88.05 ± 0.74 | 104 ± 4.79 | 94.6 ± 1.15 |  |  |  |  |  |  | 
CC(=CC(=O)CC(C)C(=O)O)C1CC(=O)C2(C)C3=C(C(=O)CC12C)C1(C)CCC(=O)C(C)(CO)C1CC3O (stereo not shown) [Compound 1] | 65 ± 6 | 86.9 ± 5.76 | 91.82 ± 0.87 | 10.1 ± 0.23 | 29.1 ± 1.9 | 79.5 ± 3.07 | 82.4 ± 1.5 | 84.3 ± 7.26 |  |  |  |  |  |  | 
CC(CC(=O)CC(C)C1CC(O)C2(C)C3=C(C(=O)CC12C)C1(C)CCC(=O)C(C)(C)C1CC3)C(=O)O (stereo not shown) [Compound 42] | 79.3 ± 0.38 | 89.1 ± 3.71 | 62.8 ± 2.72 | 21.4 ± 5.21 | 43.8 ± 4.18 | 83.7 ± 8.67 | 103 ± 3.3 | 96.8 ± 4.2 |  |  |  |  |  |  | 

Results, then the compound that gave them:

activity at 30 min (CYP2C19) [%] | activity at 30 min (CYP2B6) [%] | activity at 30 min (CYP2C9) [%] | IC50 (CYP1A2) [µM] | activity at 30 min (CYP1A2) [%] | activity at 30 min (CYP2A6) [%] | activity at 30 min (CYP2D6) [%] | activity at 30 min (CYP3A4) [%] | Residual activity (%) CYP1A2 (CYP1A2) [%] | Residual activity (%) CYP2C19 (CYP2C19; HLM 0.5 mg/mL) [%] | Residual activity (%) CYP2B6 (CYP2B6; HLM 0.5 mg/mL) [%] | Residual activity (%) CYP2C9 (CYP2C9; HLM 0.5 mg/mL) [%] | Residual activity (%) CYP2A6 (CYP2A6; HLM 0.5 mg/mL, coumarin 2 μM, 30 min) [%] | Residual activity (%) CYP2D6 (CYP2D6; HLM 0.5 mg/mL, dextromethorphan 5 μM, 30 min) [%] | Residual activity (%) CYP3A4 (CYP3A4; HLM 0.5 mg/mL) [%] | SMILES
57.82 ± 0.056 | 97.5 ± 4.16 | 86.6 ± 1.3 | 11.6 ± 1.02 | 29.1 ± 0.38 | 81.24 ± 0.65 | 76.9 ± 6.89 | 67.6 ± 2.68 |  |  |  |  |  |  |  | CC(CC(=O)CC(C)C1CC(O)C2(C)C3=C(C(=O)CC12C)C1(C)CCC(O)C(C)(CO)C1CC3=O)C(=O)O (stereo not shown) [Compound 4]
 |  |  |  |  |  |  |  | 62.18±2.53 | 116.59±7.39 | 77.48±4.68 | 96.49±3.97 | 89.71±3.49 | 93.94±6.92 | 98.83±1.66 | CC(=O)OC1C(=O)C2=C(C(=O)CC3C(C)(C)C(=O)CCC23C)C2(C)C(=O)CC(C(C)CC(=O)CC(C)C(=O)O)C12C (stereo not shown) [Compound 50]
